The values that follow come from patent publication US20210253560A1, “PLANT GROWTH REGULATING COMPOUNDS” (SYNGENTA PARTICIPATIONS AG, priority 2018, published 2021).

Each structure is given as a SMILES string.

For the first test, the system named is corn leaf. Put plainly: Dark induced senescence of corn leaf (leaf discs, image analysis). It counts as in vivo, corn (variety Multitop). The note with it: 100 μM-0.0001 μM, 23° C., up to 8 days, 12 replicates, read-out: IC50 for dark induced senescence of corn leaf (concentration at which 50% senescence was achieved). The procedure: It is known that strigolactones regulate (accelerate) leaf senescence, potentially through D14 receptor signaling. Compounds of the present invention (IA) were compared to structurally-related compounds (P) in a corn leaf dark induced senescence assay. Corn plants of variety Multitop were grown in a greenhouse with relative 75% humidity and at 23-25° C. for 6 weeks. 1.4 cm diameter leaf discs were placed into 24-well plates containing a test compounds in a concentration gradient (100 μM-0.0001 μM) at a final concentration of 0.5% DMSO. Each concentration was tested in 12 replicates. Plates were sealed with seal foil. The foil was pierced to provide gas exchange in each well. The plates were placed into the completely dark climatic chamber. Plates were incubated in the chamber with 75% humidity and at 23° C. for 8 days. On days 0, 5, 6, 7 and 8 photographs were taken of each plates, and image analysis conducted with a macro developed using the ImageJ software. The image analysis was used to determine the concentration at which 50% senescence was achieved (IC50), see Table 3. The lower the value, the higher senescence induction potency.
On to `CC1=CC(OC=C2C(=O)N(CC#N)C3c4ccccc4CC23)OC1=O` (stereo not drawn) [Compound P6-Z], for which the IC50 came out at 0.074 µM.

`CC1=CC(OC=C2C(=O)N(CC#N)C3c4ccccc4CC23)OC1=O` (stereo not drawn) [Compound P1]: the IC50 was 0.11 µM.

On to `CC1=CC(OC=C2C(=O)N(CC#N)C3c4ccccc4CC23)OC1=O` (stereo not drawn) [Compound P3], for which the IC50 is 7.2 µM.

On to `CC1=CC(OC=C2C(=O)N(CC#N)C3c4ccccc4CC23)OC1=O` (stereo not drawn) [Compound P4], for which the IC50 is 2.47 µM.

Turning to `CC1=CC(OC=C2C(=O)N(CC#N)C3c4ccccc4CC23)OC1=O` (stereo not drawn) [Compound P2], the IC50 was determined as 9.7 µM.

Staying with this test, now noted: Zea mays, foliar, 192 h, 100 μM-0.0001 μM, 23° C., up to 8 days, 12 replicates, read-out: IC50 for dark induced senescence of corn leaf (concentration at which 50% senescence was achieved).
As to `CC1=C(C)C(O/C=C2/C(=O)N(c3ccccc3)C3c4ccccc4CC23)OC1=O` (stereo not drawn) [IA-8, (3E)-3-[(3,4-dimethyl-5-oxo-2H-furan-2-yl)oxymethylene]-1-phenyl-4,8b-dihydro-3aH-indeno[1,2-b]pyrrol-2-one], the IC50 came to 0.17 µM.

Take `CC(=O)N1C(=O)/C(=C/OC2OC(=O)C(C)=C2C)C2Cc3ccccc3C21` (stereo not drawn) [IA-1, (3E)-1-acetyl-3-[(3,4-dimethyl-5-oxo-2H-furan-2-yl)oxymethylene]-4,8b-dihydro-3aH-indeno[1,2-b]pyrrol-2-one]: the IC50 turned out to be 0.03 µM.

With `CC1=C(C)C(O/C=C2/C(=O)N(CC#N)C3c4ccccc4CC23)OC1=O` (stereo not drawn) [IA-10-E], the IC50 stood at 0.155 µM.

`CC1=C(C)C(O/C=C2\C(=O)N(CC#N)C3c4ccccc4CC23)OC1=O` (stereo not drawn) [IA-10-Z, 2-[(3Z)-3-[(3,4-dimethyl-5-oxo-2H-furan-2-yl)oxymethylene]-2-oxo-4,8b-dihydro-3aH-indeno[1,2-b]pyrrol-1-yl]acetonitrile]: the IC50 amounted to 0.07 µM.
